Data as given in the NIST ThermoML archive (doi:10.1021/je5003225).

Tests used:
[1] = Liquid; Ebulliometric method (Recirculating still)
[2] = refractive index (Na D-line) (dimensionless); settings: 298.15 K; 101.33 kPa; Liquid; Standard Abbe refractometry
[3] = xn = mol fraction of the nth substance listed; settings: 298.15 K, 101 kPa, Liquid, Vibrating tube method

CCC(C)O (centres undefined) [butan-2-ol]
Settings	Normal boiling temperature [°C]	refractive index
[1]	99.61	–
[2]	–	1.3949

CCC(C)O (centres undefined) [butan-2-ol] + CCOC(C)=O
[3]
Settings	mass density [kg/m3]
x2 = 0	802.5
x2 = 0.0415	805.6
x2 = 0.0917	809.5
x2 = 0.1482	813.9
x2 = 0.208	818.7
x2 = 0.257	822.8
x2 = 0.2963	826.2
x2 = 0.3488	830.7
x2 = 0.3914	834.5
x2 = 0.4397	838.9
x2 = 0.4905	843.5
x2 = 0.5313	847.3
x2 = 0.6	853.8
x2 = 0.6539	859
x2 = 0.7031	863.8
x2 = 0.741	867.5
x2 = 0.7953	873
x2 = 0.8528	878.9
x2 = 0.8891	882.6
x2 = 0.9484	889

CCC(C)O (centres undefined) [butan-2-ol] + COC(C)=O
Settings	mass density [kg/m3]
[3], x2 = 0	802.5

CCOC(C)=O [ethyl acetate] + CCC(C)O
Settings	mass density [kg/m3]
[3], x1 = 1	894.5

COC(C)=O [methyl ethanoate] + CCC(C)O
[3]
Settings	mass density [kg/m3]
x1 = 0.058	807.2
x1 = 0.1719	817.3
x1 = 0.2756	827.5
x1 = 0.3391	834.2
x1 = 0.4544	847.3
x1 = 0.4714	849.3
x1 = 0.5051	853.4
x1 = 0.5458	858.5
x1 = 0.593	864.5
x1 = 0.6822	876.6
x1 = 0.799	893.7
x1 = 0.8576	902.9
x1 = 0.8788	906.3
x1 = 0.9586	919.9
x1 = 1	927.3
